Measured values published in patent US7429618B2, “Potassium channel modulators” (Neurosearch A/S, priority 2002, dated 2008).

For `COC(=O)C(C#N)(c1ccc(F)cc1)c1ccccc1F` (centres unmarked) [Compound 22, Cyano-(4-fluoro-phenyl)-(2-fluoro-phenyl)-acetic acid methyl ester], which melting point is on record?
Its melting point is 104 to 105 °C.

With `CCN(CC)C(=O)CSC(c1ccc(F)cc1)(c1ccc(F)cc1)c1ccccc1F` [Compound 5-14, 2-[Bis-(4-fluoro-phenyl)-(2-fluoro-phenyl)-methylsulfanyl]-N,N-diethyl-acetamide] as the molecule, how does the melting point read?
Its melting point is 122 to 123 °C.

For `O=C(O)CSC(c1ccc(F)cc1)(c1ccc(F)cc1)c1ccccc1F` [Compound 5-20, [(2-Fluoro-phenyl)-bis-(4-fluoro-phenyl)-methylsulfanyl]-acetic acid], which melting point is on record?
The melting point was 112 to 113 °C.

Which melting point does the source give for `N#CCC(C#N)(c1ccc(F)cc1)c1ccc(F)cc1` [Compound 24, 2,2-Bis-(4-fluoro-phenyl)-succinonitrile] here?
The melting point was 93 to 94 °C.

For `COP(=O)(OC)C(c1ccc(F)cc1)(c1ccccc1F)c1ccccc1Cl` (centres unmarked), which melting point is on record?
Its melting point is 131.5 to 132.5 °C.

For `N#CCSC(c1ccc(F)cc1)(c1ccc(F)cc1)c1ccccc1F` [Compound 5-19, [Bis-(4-fluoro-phenyl)-(2-fluoro-phenyl)-methylsulfanyl]-acetonitrile], which melting point is on record?
Its melting point is 111 to 112 °C.

For `O=S(=O)(c1ccccc1)C(c1ccc(F)cc1)(c1ccc(F)cc1)c1ccc(F)cc1` [Compound 7-7, Phenyl tris(4-fluorophenyl)methyl sulfone], which melting point is on record?
Its melting point is 157.4 to 160.6 °C.

With `Fc1ccc(C(OP2OCCO2)(c2ccc(F)cc2)c2ccccc2F)cc1` as the molecule, how does the melting point read?
Its melting point is 163 to 164 °C.

With `CS(=O)(=O)C(c1ccc(F)cc1)(c1ccc(F)cc1)c1ccc(F)cc1` [Compound 7-1, Methyl tris(4-fluorophenyl)methyl sulfone] as the molecule, how does the melting point read?
The melting point was 140.6 to 145.3 °C.

With `COP(=O)(OC)C(c1ccc(F)cc1)(c1ccc(F)cc1)c1ccc(F)cc1` as the molecule, how does the melting point read?
Its melting point is 131.6 °C.

With `Fc1ccc(C(OP2OCCO2)(c2ccc(F)cc2)c2ccc(F)cc2)cc1` as the molecule, how does the melting point read?
The melting point was 195 to 196 °C.

For `[O-][n+]1ccccc1SC(c1ccc(F)cc1)(c1ccc(F)cc1)c1ccc(F)cc1` [Compound 5-13, 2-[Tris-(4-fluorophenyl)-methylsulfanyl]-pyridine-N-oxide], which melting point is on record?
Its melting point is 147.7 to 151.8 °C.

For `CN(C(=O)CSC(c1ccc(F)cc1)(c1ccc(F)cc1)c1ccccc1F)c1ccccc1` [Compound 5-15, 2-[Bis-(4-fluoro-phenyl)-(2-fluoro-phenyl)-methylsulfanyl]-N-methyl-N-phenyl-acetamide], which melting point is on record?
Its melting point is 120 to 121 °C.

For `CS(=O)(=O)C(c1ccc(F)cc1)(c1ccc(F)cc1)c1ccccc1F` [Compound 7-14, Methanesulphonyl-2-fluorophenyl-bis-(4-fluoro-phenyl) methane], which melting point is on record?
Its melting point is 147 to 149 °C.

Which melting point does the source give for `Cc1ccc(C(c2ccc(F)cc2)(c2ccc(F)cc2)P(=O)(O)O)cc1` [Compound 10-15, [Bis-(4-fluoro-phenyl)-p-tolyl-methyl]-phosphonic acid] here?
The melting point was 240 °C (dec.).

For `NC(=O)CSC(c1ccc(F)cc1)(c1ccc(F)cc1)c1ccccc1F` [Compound 5-17, 2-[Bis-(4-fluoro-phenyl)-(2-fluoro-phenyl)-methylsulfanyl]-acetamide], which melting point is on record?
The melting point was 119 to 120 °C.

With `N#CC(c1ccc(F)cc1)(c1ccc(F)cc1)C(c1ccccc1)c1ccccc1` [Compound 12, 2,2-Bis-(4-fluoro-phenyl)-3,3-diphenyl-propionitrile] as the molecule, how does the melting point read?
Its melting point is 208 to 212.5 °C.

Which melting point does the source give for `COP(=O)(OC)C(c1ccc(F)cc1)(c1ccc(F)cc1)c1ccccc1F` here?
The melting point was 136.6 °C.

With `N#CC(c1ccc(F)cc1)(c1ccccc1F)C(c1ccccc1)c1ccccc1` (centres unmarked) [Compound 13, 2-(2-Fluoro-phenyl)-2-(4-fluoro-phenyl)-3,3-diphenyl-propionitrile] as the molecule, how does the melting point read?
Its melting point is 210 to 215.3 °C.

For `COP(=O)(OC)C(c1ccc(F)cc1)(c1ccc(F)cc1)c1ccc(Cl)cc1`, which melting point is on record?
The melting point was 136 to 137 °C.

Which melting point does the source give for `C=CCC(C#N)(c1ccc(F)cc1)c1ccccc1F` (centres unmarked) [Compound 4, 2-(2-Fluoro-phenyl)-2-(4-fluoro-phenyl)-pent-4-enenitrile] here?
The melting point was 215 to 219 °C.

For `CC(C)C(C#N)(c1ccc(F)cc1)c1ccc(F)cc1` [Compound 6, 2,2-Bis-(4-fluoro-phenyl)-3-methyl-butyronitrile], which melting point is on record?
The melting point was 142.3 to 147 °C.

With `Cn1ccnc1SC(c1ccc(F)cc1)(c1ccc(F)cc1)c1ccc(F)cc1` [Compound 5-11, 1-Methyl-2-[tris-(4-fluorophenyl)-methylsulfanyl]-1H-imidazole] as the molecule, how does the melting point read?
Its melting point is 135.5 to 140.5 °C.

With `CC(=O)C(C#N)(c1ccc(F)cc1)c1ccc(F)cc1` [Compound 18, 2,2-Bis-(4-fluoro-phenyl)-3-oxo-butyronitrile] as the molecule, how does the melting point read?
The melting point was < 50 °C.

With `CC(SC(c1ccc(F)cc1)(c1ccc(F)cc1)c1ccccc1F)C(N)=O` (centres unmarked) [Compound 5-18, 2-[Bis-(4-fluoro-phenyl)-(2-fluoro-phenyl)-methylsulfanyl]-propionamide] as the molecule, how does the melting point read?
Its melting point is 133 to 134 °C.

With `O=[N+]([O-])c1ccc(OC(c2ccc(F)cc2)(c2ccc(F)cc2)c2nccs2)cc1C(F)(F)F` [Compound 1, 2-[Bis-(4-fluoro-phenyl)-(4-nitro-3-trifluoromethyl-phenoxy)-methyl]-thiazole] as the molecule, how does the melting point read?
The melting point was 88.6 to 89.5 °C.

For `O=C(CSC(c1ccc(F)cc1)(c1ccc(F)cc1)c1ccccc1F)N1CCCCC1` [Compound 5-16, 2-[Bis-(4-fluoro-phenyl)-(2-fluoro-phenyl)-methylsulfanyl]-1-piperidin-1-yl-ethanone], which melting point is on record?
The melting point was 128 to 129 °C.

Which melting point does the source give for `O=P(O)(O)C(c1ccc(F)cc1)(c1ccc(F)cc1)c1ccccc1F` [Compound 10-14, [Bis-(4-fluoro-phenyl)-(2-fluoro-phenyl)-methyl]-phosphonic acid] here?
Its melting point is 228 to 230 °C.

Which melting point does the source give for `CCOC(=O)C(C(=O)OCC)C(C#N)(c1ccc(F)cc1)c1ccc(F)cc1` [Compound 27, 2-[Cyano-bis-(4-fluoro-phenyl)-methyl]-malonic acid diethyl ester] here?
The melting point was 117 to 119 °C.
